The target of assay [1] is Human α2δ-1 subunit of Cav2.2 calcium channel (Homo sapiens, UniProt P54289). In words: Human α2δ-1 subunit of Cav2.2 calcium channel assay ([3H]-Gabapentin binding). On the procedure: Human α2δ-1 Subunit of Cav2.2 Calcium Channel Assay
Human α2δ-1 enriched membranes (2.5 μg) were incubated with 15 nM of radiolabeled [3H]-Gabapentin in assay buffer containing Hepes-KOH 10 mM, pH 7.4. NSB (non specific binding) was measured by adding 10 μM pregabalin. After 60 min incubation at 27° C., binding reaction was terminated by filtering through Multiscreen GF/C (Millipore) presoaked in 0.5% polyethyleneimine in Vacuum Manifold Station, followed by 3 washes with ice-cold filtration buffer containing 50 mM Tris-HCl, pH 7.4. Filter plates were dried at 60° C. for 1 hour and 30 μl of scintillation cocktail were added to each well before radioactivity reading. Readings were performed in a Trilux 1450 Microbeta radioactive counter (Perkin Elmer).

The next assay deals with T1, human μ-opioid receptor (Homo sapiens, UniProt P35372).
T1 construct: expressed in transfected cells; host or cells: CHO-K1
Put plainly: Human μ-opioid receptor radioligand assay ([3H]-DAMGO). It counts as binding. Here is the method:
Human μ-Opioid Receptor Radioligand Assay
To investigate binding properties of test compounds to human μ-opioid receptor, transfected CHO-K1 cell membranes and [^3H]-DAMGO (Perkin Elmer, ES-542-C), as the radioligand, were used. The assay was carried out with 20 μg of membrane suspension, 1 nM of [^3H]-DAMGO in either absence or presence of either buffer or 10 μM Naloxone for total and non-specific binding, respectively. Binding buffer contained Tris-HCl 50 mM, MgCl2 5 mM at pH 7.4. Plates were incubated at 27° C. for 60 minutes. After the incubation period, the reaction mix was then transferred to MultiScreen HTS, FC plates (Millipore), filtered and plates were washed 3 times with ice-cold 10 mM Tris-HCL (pH 7.4). Filters were dried and counted at approximately 40% efficiency in a MicroBeta scintillation counter (Perkin-Elmer) using EcoScint liquid scintillation cocktail.

Where [2] appears, read: human α2δ-1 enriched membranes, 15 nM [3H]-Gabapentin, read-out: α2δ-1 binding.
Setting [3] is: transfected CHO-K1 cell membranes, 1 nM [3H]-DAMGO, read-out: μ binding.

SMILES strings stand for the structures. pKi: −log10 of the molar value. Where two headings read alike, the source gives them in different places.

Human α2δ-1 subunit of Cav2.2 calcium channel, sequence (P54289 25-1103): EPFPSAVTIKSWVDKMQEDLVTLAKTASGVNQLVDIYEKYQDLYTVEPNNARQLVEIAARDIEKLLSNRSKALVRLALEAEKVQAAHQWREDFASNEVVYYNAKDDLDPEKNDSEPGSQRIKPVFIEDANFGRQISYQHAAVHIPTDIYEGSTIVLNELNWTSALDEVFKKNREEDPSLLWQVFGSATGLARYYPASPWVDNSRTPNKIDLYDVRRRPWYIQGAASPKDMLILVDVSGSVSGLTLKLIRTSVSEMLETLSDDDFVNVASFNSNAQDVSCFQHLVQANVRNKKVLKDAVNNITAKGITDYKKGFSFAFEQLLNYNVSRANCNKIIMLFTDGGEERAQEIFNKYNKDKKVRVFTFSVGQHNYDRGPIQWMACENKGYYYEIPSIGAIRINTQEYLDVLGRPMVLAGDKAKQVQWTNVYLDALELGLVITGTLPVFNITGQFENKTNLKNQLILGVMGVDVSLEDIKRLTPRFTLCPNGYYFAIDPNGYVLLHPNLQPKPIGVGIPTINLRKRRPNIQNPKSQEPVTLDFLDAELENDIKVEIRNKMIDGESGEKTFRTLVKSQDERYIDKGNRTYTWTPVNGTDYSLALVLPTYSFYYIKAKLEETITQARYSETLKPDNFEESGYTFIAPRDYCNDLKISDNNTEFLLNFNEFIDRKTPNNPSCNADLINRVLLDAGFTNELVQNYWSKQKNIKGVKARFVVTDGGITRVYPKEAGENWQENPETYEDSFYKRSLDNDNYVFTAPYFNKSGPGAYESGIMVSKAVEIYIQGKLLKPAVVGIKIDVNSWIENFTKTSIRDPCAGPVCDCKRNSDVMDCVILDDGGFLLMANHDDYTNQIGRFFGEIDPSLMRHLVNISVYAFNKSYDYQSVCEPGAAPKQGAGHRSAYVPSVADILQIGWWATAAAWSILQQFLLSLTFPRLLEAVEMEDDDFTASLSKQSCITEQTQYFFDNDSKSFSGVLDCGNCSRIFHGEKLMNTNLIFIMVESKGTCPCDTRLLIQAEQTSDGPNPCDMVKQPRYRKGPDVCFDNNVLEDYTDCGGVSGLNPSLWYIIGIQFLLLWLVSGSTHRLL
T1 sequence (P35372 whole entry): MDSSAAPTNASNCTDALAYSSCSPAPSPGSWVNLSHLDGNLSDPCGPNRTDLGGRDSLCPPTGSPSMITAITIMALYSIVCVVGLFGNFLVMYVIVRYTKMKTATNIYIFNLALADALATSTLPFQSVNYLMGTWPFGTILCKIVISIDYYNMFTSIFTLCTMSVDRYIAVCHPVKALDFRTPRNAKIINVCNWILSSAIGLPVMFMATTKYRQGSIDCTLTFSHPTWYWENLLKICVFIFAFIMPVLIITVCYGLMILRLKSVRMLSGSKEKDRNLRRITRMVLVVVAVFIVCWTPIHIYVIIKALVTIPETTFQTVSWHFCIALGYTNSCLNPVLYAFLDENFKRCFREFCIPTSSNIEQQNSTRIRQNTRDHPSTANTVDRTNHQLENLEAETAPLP

Regarding `CC(c1ccccc1)n1nc(CN)cc1Cc1ccc(O)cc1` (stereo not drawn) [Example 49, 4-{[3-(Aminomethyl)-1-(1-phenylethyl)-1H-pyrazol-5-yl]methyl}phenol], the pKi in assay [1] (setting [2]) is below 5.30; on human μ-opioid receptor (setting [3]), below 6.30.

Take `NCc1cc(Cc2ccc(Nc3nccs3)cc2)n(-c2ccc(Cl)cc2Cl)n1` [Example 74, N-(4-{[3-(Aminomethyl)-1-(2,4-dichlorophenyl)-1H-pyrazol-5-yl]methyl}phenyl)thiazol-2-amine]: the pKi in assay [1] (setting [2]) was 5.52 to 6.30; at human μ-opioid receptor (setting [3]), below 6.30.

On to `COc1ccc(Oc2cc(CN)nn2-c2ccc(Cl)cc2Cl)cc1` [Example 17, [1-(2,4-Dichlorophenyl)-5-(4-methoxyphenoxy)-1H-pyrazol-3-yl]methanamine], for which the pKi in assay [1] was 5.30 to 5.52; on human μ-opioid receptor it was 6.30 to 7.00.

Turning to `CCC(N)c1cc(Cc2ccc(O)cc2)n(-c2ccc(Cl)cc2Cl)n1` (stereo not drawn) [Example 54, 4-{[3-(1-Aminopropyl)-1-(2,4-dichlorophenyl)-1H-pyrazol-5-yl]methyl}phenol], the pKi is 5.52 to 6.30 in assay [1] and 6.30 to 7.00 on human μ-opioid receptor.

For the compound `COc1ccc(Cc2cc(CN)nn2CC(C)C)cc1` [Example 11, [1-Isobutyl-5-(4-methoxybenzyl)-1H-pyrazol-3-yl]methanamine], the pKi is 5.52 to 6.30 in assay [1] (setting [2]) and below 6.30 at human μ-opioid receptor (setting [3]).

For `COc1ccc(Cc2cc(CN)nn2Cc2ccc(Cl)cc2)cc1` [Example 12, [1-(4-Chlorobenzyl)-5-(4-methoxybenzyl)-1H-pyrazol-3-yl]methanamine], the values for the pKi (in assay [1] (setting [2]); on human μ-opioid receptor (setting [3])) were 5.52 to 6.30 and below 6.30, respectively.

As for `CCNCc1cc(Cc2ccc(O)cc2)n(CC(C)C)n1` [Example 50, 4-({3-[{Ethylamino)methyl]-1-isobutyl-1H-pyrazol-5-yl}methyl)phenol], the pKi in assay [1] (setting [2]) is 5.30 to 5.52; on human μ-opioid receptor (setting [3]) it was below 6.30.

On to `CC(N)c1cc(Cc2ccc(O)c(F)c2)n(-c2ccc(Cl)cc2Cl)n1` (stereo in doubt) [Example 63, (S)-4-{[3-(1-Aminoethyl)-1-(2,4-dichlorophenyl)-1H-pyrazol-5-yl]methyl}-2-fluorophenol], for which the pKi was below 5.30 in assay [1] and below 6.30 on human μ-opioid receptor.

`CS(=O)(=O)Nc1ccc(Oc2cc(CN)nn2-c2ccc(Cl)cc2Cl)cc1` [Example 18, N-(4-{[3-(Aminomethyl)-1-(2,4-dichlorophenyl)-1H-pyrazol-5-yl]oxy}phenyl)methanesulfonamide]: the pKi was below 5.30 in assay [1] (setting [2]) and below 6.30 at human μ-opioid receptor (setting [3]).

Consider `COc1ccc(Cc2cc(CN)nn2Cc2ccc(Cl)cc2Cl)cc1` [Example 15, [1-(2,4-Dichlorobenzyl)-5-(4-methoxybenzyl)-1H-pyrazol-3-yl]methanamine], for which the pKi is 5.52 to 6.30 in assay [1] (setting [2]) and below 6.30 at human μ-opioid receptor (setting [3]).

Take `COc1ccc(Cc2cc(CN(C)C)nn2-c2ccc(Cl)cc2Cl)cc1` [Example 21, 1-[1-(2,4-Dichlorophenyl)-5-(4-methoxybenzyl)-1H-pyrazol-3-yl]-N,N-dimethylmethanamine]: the figures for the pKi (in assay [1] (setting [2]); at human μ-opioid receptor (setting [3])) were 5.30 to 5.52 and below 6.30, respectively.

`CC(N)c1cc(Cc2ccc(O)cc2)n(CCc2ccccc2)n1` (stereo not drawn) [Example 67, 4-{[3-(1-Aminoethyl)-1-phenethyl-1H-pyrazol-5-yl]methyl}phenol]: the pKi is below 5.30 in assay [1] (setting [2]) and below 6.30 at human μ-opioid receptor (setting [3]).

On to `NCc1cc(Cc2ccccc2)n(-c2ccc(O)cc2)n1` [Example 35, 4-[3-(Aminomethyl)-5-benzyl-1H-pyrazol-1-yl]phenol], for which the values for the pKi (in assay [1] (setting [2]); at human μ-opioid receptor (setting [3])) were 5.30 to 5.52 and below 6.30, respectively.

As to `COc1ccc(-n2nc(CN)cc2Cc2ccc(O)cc2)cc1` [Example 6, 4-{[3-(Aminomethyl)-1-(4-methoxyphenyl)-1H-pyrazol-5-yl]methyl}phenol], the results for the pKi (in assay [1] (setting [2]); on human μ-opioid receptor (setting [3])) were 5.30 to 5.52 and below 6.30, respectively.

Regarding `COc1ccc(Cc2cc(CN)nn2-c2ccccn2)cc1` [Example 20, [5-(4-Methoxybenzyl)-1-(pyridin-2-yl)-1H-pyrazol-3-yl]methanamine], the pKi was 5.30 to 5.52 in assay [1] (setting [2]) and below 6.30 at human μ-opioid receptor (setting [3]).

Consider `CC(N)c1cc(C(C)(C)c2ccc(O)cc2)n(-c2ccc(Cl)cc2Cl)n1` (stereo not drawn) [Example 55, 4-{2-[3-(1-Aminoethyl)-1-(2,4-dichlorophenyl)-1H-pyrazol-5-yl]propan-2-yl]phenol], for which the pKi was 5.52 to 6.30 in assay [1] (setting [2]) and below 6.30 on human μ-opioid receptor (setting [3]).

On to `CC(N)c1cc(Cc2ccc(OCCO)cc2)n(-c2ccc(Cl)cc2Cl)n1` (stereo not drawn) [Example 75, 2-(4-{[3-(1-Aminoethyl)-1-(2,4-dichlorophenyl)-1H-pyrazol-5-yl]methyl}phenoxy)ethan-1-ol], for which the results for the pKi (in assay [1] (setting [2]); at human μ-opioid receptor (setting [3])) were 5.52 to 6.30 and below 6.30, respectively.

On to `NCc1cc(Cc2ccc(O)cc2)n(-c2ccccn2)n1` [Example 43, 4-{[3-(Aminomethyl)-1-(pyridin-2-yl)-1H-pyrazol-5-yl]methyl}phenol], for which the pKi in assay [1] (setting [2]) is below 5.30; on human μ-opioid receptor (setting [3]) it was below 6.30.

With `CC(N)c1cc(Cc2ccc(NS(C)(=O)=O)cc2)n(-c2ccc(Cl)cc2Cl)n1` (stereo not drawn) [Example 26, N-(4-{[3-(1-Aminoethyl)-1-(2,4-dichlorophenyl)-1H-pyrazol-5-yl]methyl}phenyl)methanesulfonamide], the pKi in assay [1] (setting [2]) was 5.52 to 6.30; on human μ-opioid receptor (setting [3]), below 6.30.

Consider `CCC(CN)c1cc(Cc2ccc(O)cc2)n(-c2ccc(Cl)cc2Cl)n1` (stereo not drawn) [Example 60, 4-{[3-(1-Aminobutan-2-yl)-1-(2,4-dichlorophenyl)-1H-pyrazol-5-yl]methyl}phenol], for which the pKi in assay [1] was below 5.30; at human μ-opioid receptor, above 7.00.

As to `CC(N)c1cc(Cc2ccc(O)cc2)n(C2CCCCC2)n1` (stereo not drawn) [Example 65, 4-{[3-(1-Aminoethyl)-1-cyclohexyl-1H-pyrazol-5-yl]methyl}phenol], the pKi was above 6.30 in assay [1] and below 6.30 on human μ-opioid receptor.

Consider `COc1ccc(Cc2cc(CN)nn2-c2ccc(Cl)cc2)cc1` [Example 3, [1-(4-Chlorophenyl)-5-(4-methoxybenzyl)-1H-pyrazol-3-yl]methanamine], for which the figures for the pKi (in assay [1] (setting [2]); on human μ-opioid receptor (setting [3])) were 5.30 to 5.52 and below 6.30, respectively.

Take `COc1ccc(Cc2cc(C(C)N)nn2-c2ccc(Cl)cc2Cl)cc1` (stereo not drawn) [Example 24, 1-[1-(2,4-Dichlorophenyl)-5-(4-methoxybenzyl)-1H-pyrazol-3-yl]ethanamine]: the results for the pKi (in assay [1]; at human μ-opioid receptor) were 5.52 to 6.30 and 6.30 to 7.00, respectively.

`NCc1cc(Cc2ccc(O)cc2)n(Cc2ccccc2Cl)n1` [Example 47, 4-{[3-(Aminomethyl)-1-(2-chlorobenzyl)-1H-pyrazol-5-yl]methyl}phenol]: the pKi is 5.52 to 6.30 in assay [1] (setting [2]) and below 6.30 on human μ-opioid receptor (setting [3]).

In the case of `COc1ccc(-n2nc([C@@H](C)N)cc2Cc2ccc(O)cc2)c(Cl)c1` [Example 69, (R)-4-{[3-(1-Aminoethyl)-1-(2-chloro-4-methoxyphenyl)-1H-pyrazol-5-yl]methyl}phenol], the pKi in assay [1] is below 5.30; at human μ-opioid receptor, 6.30 to 7.00.

As to `COc1ccc(Cc2cc(CN)nn2Cc2ccccc2Cl)cc1` [Example 14, [1-(2-Chlorobenzyl)-5-(4-methoxybenzyl)-1H-pyrazol-3-yl]methanamine], the pKi in assay [1] (setting [2]) was 5.52 to 6.30; at human μ-opioid receptor (setting [3]) it was below 6.30.

Take `COc1ccc(Cc2cc(CN)nn2C(C)c2ccccc2)cc1` (stereo not drawn) [Example 16, [5-(4-Methoxybenzyl)-1-(1-phenylethyl)-1H-pyrazol-3-yl]methanamine]: the pKi was 5.52 to 6.30 in assay [1] (setting [2]) and below 6.30 at human μ-opioid receptor (setting [3]).

As for `COc1ccc(Cc2cc(CN)nn2-c2ccc(OC)cc2Cl)cc1` [Example 4, [1-(2-Chloro-4-methoxyphenyl)-5-(4-methoxybenzyl)-1H-pyrazol-3-yl]methanamine], the figures for the pKi (in assay [1]; at human μ-opioid receptor) were 5.52 to 6.30 and 6.30 to 7.00, respectively.

Turning to `NC(CN1CCCCC1)c1cc(Cc2ccc(O)cc2)n(-c2ccc(Cl)cc2Cl)n1` (stereo not drawn) [Example 72, 4-({3-[1-Amino-2-(piperidin-1-yl)ethyl]-1-(2,4-dichlorophenyl)-1H-pyrazol-5-yl}methyl)phenol], the pKi in assay [1] is below 5.30; at human μ-opioid receptor it was 6.30 to 7.00.

In the case of `NCc1cc(Cc2ccccc2)n(-c2cccc(O)c2)n1` [Example 36, 3-[3-(Aminomethyl)-5-benzyl-1H-pyrazol-1-yl]phenol], the pKi in assay [1] (setting [2]) is 5.30 to 5.52; on human μ-opioid receptor (setting [3]) it was below 6.30.

For `NC(CO)c1cc(Cc2ccc(O)cc2)n(-c2ccc(Cl)cc2Cl)n1` (stereo not drawn) [Example 71, 4-{[3-(1-Amino-2-hydroxyethyl)-1-(2,4-dichlorophenyl)-1H-pyrazol-5-yl]methyl}phenol], the pKi in assay [1] was below 5.30; at human μ-opioid receptor, 6.30 to 7.00.

In the case of `CC(N)c1cc(Cc2ccc(O)cc2)n(C2CCOCC2)n1` (stereo not drawn) [Example 66, 4-{[3-(1-Aminoethyl)-1-(tetrahydro-2H-pyran-4-yl)-1H-pyrazol-5-yl]methyl}phenol], the values for the pKi (in assay [1] (setting [2]); on human μ-opioid receptor (setting [3])) were below 5.30 and below 6.30, respectively.

On to `COc1ccc(Cc2cc(CN)nn2-c2ccccc2Cl)cc1` [Example 2, [1-(2-Chlorophenyl)-5-(4-methoxybenzyl)-1H-pyrazol-3-yl]methanamine], for which the results for the pKi (in assay [1] (setting [2]); on human μ-opioid receptor (setting [3])) were 5.52 to 6.30 and below 6.30, respectively.
